Source: the NIST ThermoML archive (doi:10.1016/j.fluid.2014.10.044)
Numbers after ± are expanded uncertainties.

Assay: xn = mol fraction of the nth substance listed
Conditions: 298.15 K, 101 kPa, Liquid; for viscosity: Concentric cylinders viscometry; for mass density: Vibrating tube method

viscosity (x2 = 0.25): 311.21 ± 19 mPa·s
viscosity (x2 = 0.5): 803.76 ± 74 mPa·s
mass density (x2 = 0.25): 1266.5 ± 0.9 kg/m3
mass density (x2 = 0.5): 1197.6 ± 1 kg/m3
SMILES: O=C(O)CO [2-hydroxyethanoic acid] + C[N+](C)(C)CCO.[Cl-]
